In patent US8258134B2, “Pyridazinone glucokinase activators” (Hoffmann-La Roche Inc., priority 2008, dated 2012):

target: T1, Recombinant human liver GK1 (GST-GK) (Homo sapiens, UniProt P35557); assay: Glucokinase in vitro assay (G6PDH-coupled NADH generation, OD340); format: biochemical; settings: 30 uM test compound, 5 mM D-glucose
T1 construct: made in house; host or cells: E. coli
T1 sequence (P35557 1-466 isoform P35557-2): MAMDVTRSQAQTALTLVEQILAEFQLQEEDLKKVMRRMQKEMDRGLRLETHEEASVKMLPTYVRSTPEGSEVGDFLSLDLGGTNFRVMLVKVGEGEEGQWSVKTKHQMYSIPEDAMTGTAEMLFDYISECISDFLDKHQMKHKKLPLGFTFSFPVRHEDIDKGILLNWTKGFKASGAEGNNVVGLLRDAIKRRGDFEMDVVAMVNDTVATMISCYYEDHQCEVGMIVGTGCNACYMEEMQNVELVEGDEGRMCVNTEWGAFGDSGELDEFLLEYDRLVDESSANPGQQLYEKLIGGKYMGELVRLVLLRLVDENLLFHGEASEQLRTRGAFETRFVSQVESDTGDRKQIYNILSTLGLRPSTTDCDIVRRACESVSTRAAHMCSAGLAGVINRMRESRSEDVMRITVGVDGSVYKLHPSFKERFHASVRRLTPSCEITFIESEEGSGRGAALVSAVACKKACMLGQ
Summary of the method: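 Activation readout is SC1.5, the activator concentration raising GK rate (OD340/min) 50% above 10% DMSO controls. The coupled reaction used GST-GK1 from E. coli, 5 mM glucose, 1 mM ATP, 1.8 mM NAD and 25 mM Hepes pH 7.1 at 30° C. Enzyme was added after a 10 min compound pre-incubation.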

SMILES	fold activation @ 30 uM
Cn1nc(NC(=O)C(CC2CCCC2)n2ncc(Oc3ccccc3C(F)(F)F)cc2=O)cc1C(F)(F)F (stereo not drawn) [Example 45, 3-Cyclopentyl-N-(1-methyl-5-trifluoromethyl-1H-pyrazol-3-yl)-2-[6-oxo-4-(2-trifluoromethyl-phenoxy)-6H-pyridazin-1-yl]-propionamide]	1.15 fold

same assay, conditions: 5 mM D-glucose, 30° C., pH 7.1, 10% DMSO

SMILES	SC1.5 average (concentration of activator that produced a 50% increase in the activity of GK)
CC(C)(O)Cn1ccc(NC(=O)[C@@H](CC2CCOCC2)n2ncc(Oc3c(F)cccc3F)cc2=O)n1 [Example 43B, (R)-2-[4-(2,6-Difluoro-phenoxy)-6-oxo-6H-pyridazin-1-yl]-N-[1-(2-hydroxy-2-methyl-propyl)-1H-pyrazol-3-yl]-3-(tetrahydro-pyran-4-yl)-propionamide]	7.536 µM
CC(C)(O)Cn1ccc(NC(=O)C(Cc2ccccc2)n2ncc(Oc3c(F)cccc3F)cc2=O)n1 (stereo not drawn) [Example 44, 2-[4-(2,6-Difluoro-phenoxy)-6-oxo-6H-pyridazin-1-yl]-N-[1-(2-hydroxy-2-methyl-propyl)-1H-pyrazol-3-yl]-3-phenyl-propionamide]	1.032 µM
Cn1nc(NC(=O)C(CC2CCCC2)n2ncc(Oc3ccccc3C(F)(F)F)cc2=O)cc1C(F)(F)F (stereo not drawn) [Example 45, 3-Cyclopentyl-N-(1-methyl-5-trifluoromethyl-1H-pyrazol-3-yl)-2-[6-oxo-4-(2-trifluoromethyl-phenoxy)-6H-pyridazin-1-yl]-propionamide]	> 30 µM
CC(C)(O)Cn1ccc(NC(=O)C(CC2CCCC2)n2ncc(Cc3ccccc3C(F)(F)F)cc2=O)n1 (stereo not drawn) [Example 46, 3-Cyclopentyl-N-[1-(2-hydroxy-2-methyl-propyl)-1H-pyrazol-3-yl]-2-[6-oxo-4-(2-trifluoromethyl-benzyl)-6H-pyridazin-1-yl]-propionamide]	1.947 µM
CC(C)(O)Cn1ccc(NC(=O)C(CC2CCCC2)n2ncc(Cc3cccc(C(F)(F)F)c3)cc2=O)n1 (stereo not drawn) [Example 47, 3-Cyclopentyl-N-[1-(2-hydroxy-2-methyl-propyl)-1H-pyrazol-3-yl]-2-[6-oxo-4-(3-trifluoromethyl-benzyl)-6H-pyridazin-1-yl]-propionamide]	1.366 µM
CC(C)(O)Cn1ccc(NC(=O)C(CC2CCCC2)n2ncc(Cc3c(F)cccc3F)cc2=O)n1 (stereo not drawn) [Example 48, 3-Cyclopentyl-2-[4-(2,6-difluoro-benzyl)-6-oxo-6H-pyridazin-1-yl]-N-[1-(2-hydroxy-2-methyl-propyl)-1H-pyrazol-3-yl]-propionamide]	1.495 µM
CC(C)(O)Cn1ccc(NC(=O)C(CC2CCC2)n2ncc(Oc3c(F)cccc3F)cc2=O)n1 (stereo not drawn) [Example 49, 3-Cyclobutyl-2-[4-(2,6-difluoro-phenoxy)-6-oxo-6H-pyridazin-1-yl]-N-[1-(2-hydroxy-2-methyl-propyl)-1H-pyrazol-3-yl]-propionamide]	0.305 µM
CC(C)(O)Cn1ccc(NC(=O)C(Cc2c(F)cccc2F)n2ncc(Oc3c(F)cccc3F)cc2=O)n1 (stereo not drawn) [Example 50, 2-[4-(2,6-Difluoro-phenoxy)-6-oxo-6H-pyridazin-1-yl]-3-(2,6-difluoro-phenyl)-N-[1-(2-hydroxy-2-methyl-propyl)-1H-pyrazol-3-yl]-propionamide]	0.466 µM
CC(C)(O)Cn1ccc(NC(=O)C(CC2CCCCC2)n2ncc(Oc3c(F)cccc3F)cc2=O)n1 (stereo not drawn) [Example 51, 3-Cyclohexyl-2-[4-(2,6-difluoro-phenoxy)-6-oxo-6H-pyridazin-1-yl]-N-[1-(2-hydroxy-2-methyl-propyl)-1H-pyrazol-3-yl]-propionamide]	0.087 µM
CC(C)(O)Cn1ccc(NC(=O)[C@H](CC2CCCCC2)n2ncc(Oc3c(F)cccc3F)cc2=O)n1 [Example 51A, (S)-3-Cyclohexyl-2-[4-(2,6-difluoro-phenoxy)-6-oxo-6H-pyridazin-1-yl]-N-[1-(2-hydroxy-2-methyl-propyl)-1H-pyrazol-3-yl]-propionamide]	0.038 µM
CC(C)(O)Cn1ccc(NC(=O)[C@@H](CC2CCCCC2)n2ncc(Oc3c(F)cccc3F)cc2=O)n1 [Example 51B, (R)-3-Cyclohexyl-2-[4-(2,6-difluoro-phenoxy)-6-oxo-6H-pyridazin-1-yl]-N-[1-(2-hydroxy-2-methyl-propyl)-1H-pyrazol-3-yl]-propionamide]	0.838 µM
CCC(CC)CC(C(=O)Nc1ccn(CC(C)(C)O)n1)n1ncc(Oc2c(F)cccc2F)cc1=O (stereo not drawn) [Example 52, 2-[4-(2,6-Difluoro-phenoxy)-6-oxo-6H-pyridazin-1-yl]-4-ethyl-hexanoic acid [1-(2-hydroxy-2-methyl-propyl)-1H-pyrazol-3-yl]-amide]	0.456 µM
O=C(Nc1ccn(CCO)n1)C(CC1CCOCC1)n1ncc(Oc2c(F)cccc2F)cc1=O (stereo not drawn) [Example 53, 2-[4-(2,6-Difluoro-phenoxy)-6-oxo-6H-pyridazin-1-yl]-N-[1-(2-hydroxy-ethyl)-1H-pyrazol-3-yl]-3-(tetrahydro-pyran-4-yl)-propionamide]	0.469 µM
CCC(CC)CC(C(=O)Nc1ccn(CCO)n1)n1ncc(Oc2c(F)cccc2F)cc1=O (stereo not drawn) [Example 54, 2-[4-(2,6-Difluoro-phenoxy)-6-oxo-6H-pyridazin-1-yl]-4-ethyl-hexanoic acid [1-(2-hydroxy-ethyl)-1H-pyrazol-3-yl]-amide]	0.544 µM
O=C(Nc1ccn(CCO)n1)C(CC1CCC1)n1ncc(Oc2c(F)cccc2F)cc1=O (stereo not drawn) [Example 55, 3-Cyclobutyl-2-[4-(2,6-difluoro-phenoxy)-6-oxo-6H-pyridazin-1-yl]-N-[1-(2-hydroxy-ethyl)-1H-pyrazol-3-yl]-propionamide]	0.468 µM
O=C(Nc1ccn(CCO)n1)C(CC1CCCCC1)n1ncc(Oc2c(F)cccc2F)cc1=O (stereo not drawn) [Example 56, 3-Cyclohexyl-2-[4-(2,6-difluoro-phenoxy)-6-oxo-6H-pyridazin-1-yl]-N-[1-(2-hydroxy-ethyl)-1H-pyrazol-3-yl]-propionamide]	0.153 µM
O=C(Nc1ccn(CCO)n1)C(Cc1c(F)cccc1F)n1ncc(Oc2c(F)cccc2F)cc1=O (stereo not drawn) [Example 57, 2-[4-(2,6-Difluoro-phenoxy)-6-oxo-6H-pyridazin-1-yl]-3-(2,6-difluoro-phenyl)-N-[1-(2-hydroxy-ethyl)-1H-pyrazol-3-yl]-propionamide]	0.986 µM
O=C(Nc1ccn(CCO)n1)C(Cc1ccccc1)n1ncc(Oc2c(F)cccc2F)cc1=O (stereo not drawn) [Example 58, 2-[4-(2,6-Difluoro-phenoxy)-6-oxo-6H-pyridazin-1-yl]-N-[1-(2-hydroxy-ethyl)-1H-pyrazol-3-yl]-3-phenyl-propionamide]	2.719 µM
CC(C)CC(C(=O)Nc1ccn(CCO)n1)n1ncc(Oc2c(F)cccc2F)cc1=O (stereo not drawn) [Example 59, 2-[4-(2,6-Difluoro-phenoxy)-6-oxo-6H-pyridazin-1-yl]-4-methyl-pentanoic acid [1-(2-hydroxy-ethyl)-1H-pyrazol-3-yl]-amide]	0.576 µM
O=C(Nc1ccn(CCO)n1)C(CC1CCCC1)n1ncc(Oc2c(F)cccc2F)cc1=O (stereo not drawn) [Example 60, 3-Cyclopentyl-2-[4-(2,6-difluoro-phenoxy)-6-oxo-6H-pyridazin-1-yl]-N-[1-(2-hydroxy-ethyl)-1H-pyrazol-3-yl]-propionamide]	0.166 µM
O=C(Nc1ccn(CCO)n1)[C@H](CC1CCCC1)n1ncc(Oc2c(F)cccc2F)cc1=O [Example 60A, (S)-3-Cyclopentyl-2-[4-(2,6-difluoro-phenoxy)-6-oxo-6H-pyridazin-1-yl]-N-[1-(2-hydroxy-ethyl)-1H-pyrazol-3-yl]-propionamide]	0.066 µM
O=C(Nc1ccn(CCO)n1)[C@@H](CC1CCCC1)n1ncc(Oc2c(F)cccc2F)cc1=O [Example 60B, (R)-3-Cyclopentyl-2-[4-(2,6-difluoro-phenoxy)-6-oxo-6H-pyridazin-1-yl]-N-[1-(2-hydroxy-ethyl)-1H-pyrazol-3-yl]-propionamide]	1.942 µM
CC(C)CC(C(=O)Nc1ccn(C[C@@H](O)CO)n1)n1ncc(Oc2c(F)cccc2F)cc1=O (stereo partly drawn) [Example 61, 2-[4-(2,6-Difluoro-phenoxy)-6-oxo-6H-pyridazin-1-yl]-4-methyl-pentanoic acid [1-((R)-2,3-dihydroxy-propyl)-1H-pyrazol-3-yl]-amide]	0.383 µM
